Data: patent US20210255193A1, “LYSINE REACTIVE PROBES AND USES THEREOF” (The Scripps Research Institute, priority 2017, published 2021)

Key:
Experiment in all cases: competitive isoTOP-ABPP
Type in all cases: binding
[1] = molecular target: T1, GBAS Protein NipSnap homolog 2 (Homo sapiens, UniProt O75323); details: for isoTOP-ABPP ratio (R) at liganded lysine O75323_K75: 50 uM, in vitro, sol, 231
T1 construct: isoTOP-ABPP experiments performed in cell lysates (in vitro); endogenous in cells; host or cells: MDA-MB-231 soluble lysate
T1 sequence (O75323 24-286): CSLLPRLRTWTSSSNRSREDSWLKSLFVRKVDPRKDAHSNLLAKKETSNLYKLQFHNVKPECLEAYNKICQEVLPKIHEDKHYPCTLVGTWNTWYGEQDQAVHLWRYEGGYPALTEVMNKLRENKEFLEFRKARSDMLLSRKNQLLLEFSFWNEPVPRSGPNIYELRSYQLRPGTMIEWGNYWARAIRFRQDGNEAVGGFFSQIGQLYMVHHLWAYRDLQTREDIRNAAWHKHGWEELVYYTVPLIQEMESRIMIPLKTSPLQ
In short: (§1)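 Cell lysate treated in vitro with fragments (50 μM activated esters, 100 μM guanidinylating agents) or DMSO, labelled 1 h at ambient temperature with 0.1 mM STP-alkyne, CuAAC-tagged with light/heavy TEV tags, analysed by MS. R = DMSO/compound MS1 peak-area ratio; lysines with R≥4 called liganded.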

EEF2 Elongation factor 2 = molecular target: T2, EEF2 Elongation factor 2 (Homo sapiens, UniProt P13639); details: for isoTOP-ABPP ratio (R) at liganded lysine P13639_K235 / isoTOP-ABPP ratio (R) at liganded lysine P13639_K318: 50 uM, in vitro, sol, 231
T2 construct: isoTOP-ABPP experiments performed in cell lysates (in vitro); endogenous in cells; host or cells: soluble proteome of human cancer cell lines (MDA-MB-231; Ramos and Jurkat also prepared)
In short: as §1

[2] = molecular target: T3, DYNC1H1 Cytoplasmic dynein 1 heavy chain 1 (Homo sapiens, UniProt Q14204); details: for isoTOP-ABPP ratio (R) at liganded lysine Q14204_K1649: 50 uM, in vitro, sol, 231
T3 construct: isoTOP-ABPP experiments performed in cell lysates (in vitro); endogenous in cells; host or cells: soluble proteome of human cancer cell lines (MDA-MB-231, Ramos, Jurkat)
T3 sequence (Q14204 whole entry): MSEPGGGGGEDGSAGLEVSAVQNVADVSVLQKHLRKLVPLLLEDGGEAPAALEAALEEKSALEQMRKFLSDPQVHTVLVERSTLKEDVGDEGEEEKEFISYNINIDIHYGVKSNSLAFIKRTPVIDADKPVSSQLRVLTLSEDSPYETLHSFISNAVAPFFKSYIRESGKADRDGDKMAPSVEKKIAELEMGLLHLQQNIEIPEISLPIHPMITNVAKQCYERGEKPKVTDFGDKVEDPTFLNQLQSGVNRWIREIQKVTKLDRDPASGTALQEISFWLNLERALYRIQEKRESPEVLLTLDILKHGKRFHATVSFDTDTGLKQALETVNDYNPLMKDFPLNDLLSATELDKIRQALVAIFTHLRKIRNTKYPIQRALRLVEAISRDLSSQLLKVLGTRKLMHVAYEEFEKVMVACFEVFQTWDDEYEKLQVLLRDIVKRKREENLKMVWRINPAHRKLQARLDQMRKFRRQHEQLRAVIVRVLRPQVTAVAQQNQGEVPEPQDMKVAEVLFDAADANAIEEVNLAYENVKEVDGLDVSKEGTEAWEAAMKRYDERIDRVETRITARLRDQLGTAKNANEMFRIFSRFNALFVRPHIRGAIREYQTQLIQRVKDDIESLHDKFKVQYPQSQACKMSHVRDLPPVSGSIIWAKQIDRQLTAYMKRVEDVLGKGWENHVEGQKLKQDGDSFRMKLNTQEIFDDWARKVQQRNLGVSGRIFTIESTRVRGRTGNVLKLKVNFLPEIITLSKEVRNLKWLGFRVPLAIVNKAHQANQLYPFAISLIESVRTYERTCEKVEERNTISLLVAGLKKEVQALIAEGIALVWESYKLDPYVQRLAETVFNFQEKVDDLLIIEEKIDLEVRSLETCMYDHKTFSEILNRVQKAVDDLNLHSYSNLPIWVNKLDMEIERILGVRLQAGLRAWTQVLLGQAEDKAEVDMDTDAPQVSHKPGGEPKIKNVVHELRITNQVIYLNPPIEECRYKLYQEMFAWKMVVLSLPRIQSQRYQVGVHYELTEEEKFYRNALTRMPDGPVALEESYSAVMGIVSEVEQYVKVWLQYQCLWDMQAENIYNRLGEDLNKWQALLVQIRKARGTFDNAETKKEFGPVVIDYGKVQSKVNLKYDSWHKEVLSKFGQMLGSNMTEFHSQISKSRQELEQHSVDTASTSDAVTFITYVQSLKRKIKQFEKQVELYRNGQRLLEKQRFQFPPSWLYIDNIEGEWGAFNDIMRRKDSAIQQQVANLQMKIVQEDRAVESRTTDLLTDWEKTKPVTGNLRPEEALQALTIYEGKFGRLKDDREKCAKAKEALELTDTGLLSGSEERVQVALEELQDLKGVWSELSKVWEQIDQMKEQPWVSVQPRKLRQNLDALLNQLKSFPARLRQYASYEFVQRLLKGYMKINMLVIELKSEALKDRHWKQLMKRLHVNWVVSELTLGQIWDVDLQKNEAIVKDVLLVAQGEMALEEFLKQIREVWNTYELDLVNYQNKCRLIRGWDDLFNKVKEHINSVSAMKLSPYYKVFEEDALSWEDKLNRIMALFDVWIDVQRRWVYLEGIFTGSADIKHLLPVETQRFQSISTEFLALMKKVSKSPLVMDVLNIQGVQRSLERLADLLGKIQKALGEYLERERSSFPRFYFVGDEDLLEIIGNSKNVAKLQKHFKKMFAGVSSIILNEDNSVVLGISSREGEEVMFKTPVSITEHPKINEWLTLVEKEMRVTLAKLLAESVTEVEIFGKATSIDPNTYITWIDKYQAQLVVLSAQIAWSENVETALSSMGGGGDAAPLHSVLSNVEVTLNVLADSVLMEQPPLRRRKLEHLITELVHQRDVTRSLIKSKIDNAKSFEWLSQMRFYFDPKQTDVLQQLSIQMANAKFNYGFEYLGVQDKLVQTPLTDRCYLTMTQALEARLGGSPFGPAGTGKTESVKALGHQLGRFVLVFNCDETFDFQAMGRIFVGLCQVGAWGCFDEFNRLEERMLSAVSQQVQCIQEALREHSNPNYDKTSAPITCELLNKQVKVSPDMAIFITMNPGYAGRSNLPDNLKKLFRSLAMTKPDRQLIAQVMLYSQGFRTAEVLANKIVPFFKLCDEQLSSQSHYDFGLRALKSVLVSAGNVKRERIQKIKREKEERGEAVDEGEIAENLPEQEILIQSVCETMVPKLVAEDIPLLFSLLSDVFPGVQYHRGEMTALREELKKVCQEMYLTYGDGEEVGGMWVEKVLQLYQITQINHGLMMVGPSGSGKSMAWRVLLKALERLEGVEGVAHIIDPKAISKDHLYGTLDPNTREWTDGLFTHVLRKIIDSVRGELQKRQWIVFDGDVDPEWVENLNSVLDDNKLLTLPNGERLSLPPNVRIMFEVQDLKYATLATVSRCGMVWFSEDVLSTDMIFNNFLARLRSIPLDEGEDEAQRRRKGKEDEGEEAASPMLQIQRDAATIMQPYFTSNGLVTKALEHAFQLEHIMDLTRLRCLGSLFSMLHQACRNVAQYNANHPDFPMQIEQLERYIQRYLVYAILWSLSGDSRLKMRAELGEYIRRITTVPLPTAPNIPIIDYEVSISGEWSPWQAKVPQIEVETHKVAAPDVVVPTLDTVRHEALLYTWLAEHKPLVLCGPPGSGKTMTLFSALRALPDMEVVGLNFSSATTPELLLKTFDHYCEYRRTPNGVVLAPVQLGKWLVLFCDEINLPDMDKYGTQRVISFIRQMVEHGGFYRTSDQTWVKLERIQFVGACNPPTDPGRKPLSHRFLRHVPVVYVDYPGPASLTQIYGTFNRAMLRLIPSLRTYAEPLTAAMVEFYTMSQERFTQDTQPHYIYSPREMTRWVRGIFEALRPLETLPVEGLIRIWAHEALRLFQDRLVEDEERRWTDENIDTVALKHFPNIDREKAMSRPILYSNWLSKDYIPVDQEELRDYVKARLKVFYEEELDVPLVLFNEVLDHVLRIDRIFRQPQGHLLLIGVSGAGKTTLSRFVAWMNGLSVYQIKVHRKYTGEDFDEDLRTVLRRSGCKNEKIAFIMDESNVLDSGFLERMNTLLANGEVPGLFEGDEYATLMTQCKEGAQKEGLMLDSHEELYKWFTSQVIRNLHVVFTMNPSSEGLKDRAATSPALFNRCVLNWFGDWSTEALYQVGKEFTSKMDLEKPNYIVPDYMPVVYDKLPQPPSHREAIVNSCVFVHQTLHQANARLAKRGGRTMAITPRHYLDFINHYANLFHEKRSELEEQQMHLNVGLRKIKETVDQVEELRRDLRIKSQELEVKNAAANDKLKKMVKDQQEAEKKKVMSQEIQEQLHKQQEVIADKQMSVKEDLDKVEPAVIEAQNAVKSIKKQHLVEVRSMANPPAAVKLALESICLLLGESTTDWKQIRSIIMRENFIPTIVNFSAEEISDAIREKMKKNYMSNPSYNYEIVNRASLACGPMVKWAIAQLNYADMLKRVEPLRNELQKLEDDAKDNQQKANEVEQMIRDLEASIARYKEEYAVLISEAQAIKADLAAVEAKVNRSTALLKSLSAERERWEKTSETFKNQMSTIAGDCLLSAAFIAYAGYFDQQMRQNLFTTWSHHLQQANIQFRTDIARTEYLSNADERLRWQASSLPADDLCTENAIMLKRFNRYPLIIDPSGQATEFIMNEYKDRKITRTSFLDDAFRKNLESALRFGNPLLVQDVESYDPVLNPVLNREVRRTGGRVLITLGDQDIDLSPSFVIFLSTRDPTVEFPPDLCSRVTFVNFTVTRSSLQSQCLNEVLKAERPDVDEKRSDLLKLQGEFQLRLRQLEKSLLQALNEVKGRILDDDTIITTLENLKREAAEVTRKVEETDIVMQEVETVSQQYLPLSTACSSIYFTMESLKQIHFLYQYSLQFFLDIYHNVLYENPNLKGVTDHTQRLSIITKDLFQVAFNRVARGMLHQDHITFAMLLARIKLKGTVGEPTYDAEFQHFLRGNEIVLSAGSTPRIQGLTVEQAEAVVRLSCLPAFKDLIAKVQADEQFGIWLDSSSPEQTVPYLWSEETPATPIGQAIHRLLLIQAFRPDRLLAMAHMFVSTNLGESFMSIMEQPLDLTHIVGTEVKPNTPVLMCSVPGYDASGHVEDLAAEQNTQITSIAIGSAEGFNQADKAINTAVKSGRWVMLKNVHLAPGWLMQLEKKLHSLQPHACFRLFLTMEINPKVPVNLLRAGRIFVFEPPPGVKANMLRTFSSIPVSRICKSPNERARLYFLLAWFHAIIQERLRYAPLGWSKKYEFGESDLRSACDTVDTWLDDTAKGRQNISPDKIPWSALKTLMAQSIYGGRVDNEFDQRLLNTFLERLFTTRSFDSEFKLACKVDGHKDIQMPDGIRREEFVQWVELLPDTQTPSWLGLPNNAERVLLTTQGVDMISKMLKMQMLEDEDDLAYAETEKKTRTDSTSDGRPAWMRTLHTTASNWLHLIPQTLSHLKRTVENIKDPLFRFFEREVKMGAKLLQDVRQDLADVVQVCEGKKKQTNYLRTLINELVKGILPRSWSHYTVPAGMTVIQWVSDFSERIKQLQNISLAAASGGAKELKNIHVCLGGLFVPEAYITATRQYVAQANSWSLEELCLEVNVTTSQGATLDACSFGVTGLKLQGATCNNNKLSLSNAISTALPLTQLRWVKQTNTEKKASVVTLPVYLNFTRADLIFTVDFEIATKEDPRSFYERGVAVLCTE
In short: as §1

[3] = molecular target: T4, PNPO Pyridoxine-5-phosphate oxidase (Homo sapiens, UniProt Q9NVS9); details: for isoTOP-ABPP ratio (R) at liganded lysine Q9NVS9_K100: 50 uM, in vitro, sol, 231
T4 construct: endogenous in cells; host or cells: MDA-MB-231 (soluble fraction of lysate)
T4 sequence (Q9NVS9 1-261): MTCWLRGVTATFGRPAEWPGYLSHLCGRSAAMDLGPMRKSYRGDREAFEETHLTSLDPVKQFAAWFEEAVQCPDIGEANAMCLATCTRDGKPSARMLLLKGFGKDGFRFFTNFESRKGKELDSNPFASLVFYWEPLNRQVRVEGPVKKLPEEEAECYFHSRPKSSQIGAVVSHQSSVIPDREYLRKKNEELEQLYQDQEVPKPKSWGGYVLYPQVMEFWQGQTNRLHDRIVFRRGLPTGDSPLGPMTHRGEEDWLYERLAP
In short: as §1

[4] = molecular target: T5, GSTT2B Glutathione S-transferase theta-2B (Homo sapiens, UniProt P0CG30); details: for isoTOP-ABPP ratio (R) at liganded lysine P0CG30_K53: 50 uM, in vitro, sol, 231
T5 construct: isoTOP-ABPP experiments performed in cell lysates (in vitro); endogenous in cells; host or cells: MDA-MB-231 soluble lysate
T5 sequence (P0CG30 1-244): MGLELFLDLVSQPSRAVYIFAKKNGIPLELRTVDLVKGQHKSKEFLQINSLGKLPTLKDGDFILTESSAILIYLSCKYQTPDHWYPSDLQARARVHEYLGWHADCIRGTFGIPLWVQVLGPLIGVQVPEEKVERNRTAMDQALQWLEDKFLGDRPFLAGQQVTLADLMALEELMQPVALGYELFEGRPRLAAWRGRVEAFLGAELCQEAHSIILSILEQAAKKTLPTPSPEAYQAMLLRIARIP
In short: as §1

Row | SMILES | isoTOP-ABPP ratio, lysine O75323_K75 ([1]; 50 uM_231_sol_in vitro) | isoTOP-ABPP ratio, lysine P13639_K235 (EEF2 Elongation factor 2; 50 uM_231_sol_in vitro) | isoTOP-ABPP ratio, lysine P13639_K318 (EEF2 Elongation factor 2; 50 uM_231_sol_in vitro) | isoTOP-ABPP ratio, lysine Q14204_K1649 ([2]; 50 uM_231_sol_in vitro) | isoTOP-ABPP ratio, lysine Q9NVS9_K100 ([3]; 50 uM_231_sol_in vitro) | isoTOP-ABPP ratio, lysine P0CG30_K53 ([4]; 50 uM_231_sol_in vitro) | also measured
1 | O=C(Oc1ccc([N+](=O)[O-])cc1[N+](=O)[O-])C(c1ccccc1)(c1ccccc1)c1ccccc1 [fragment 42, 2,4-Dinitrophenyl 2,2,2-triphenylacetate] |  |  |  |  |  |  | isoTOP-ABPP ratio (R) at liganded lysine O75323_K75 [1]: 0.9; isoTOP-ABPP ratio (R) at liganded lysine P13639_K235 (EEF2 Elongation factor 2): 1.0; isoTOP-ABPP ratio (R) at liganded lysine P13639_K318 (EEF2 Elongation factor 2): 1.0; isoTOP-ABPP ratio (R) at liganded lysine Q14204_K1649 [2]: 0.8; isoTOP-ABPP ratio (R) at liganded lysine Q9NVS9_K100 [3]: 0.9; isoTOP-ABPP ratio (R) at liganded lysine P0CG30_K53 [4]: 1.0
2 | CC(=O)Oc1ccc([N+](=O)[O-])cc1[N+](=O)[O-] [fragment 43, 2,4-Dinitrophenyl acetate] |  |  |  |  |  |  | isoTOP-ABPP ratio (R) at liganded lysine O75323_K75 [1]: 1.6; isoTOP-ABPP ratio (R) at liganded lysine P13639_K235 (EEF2 Elongation factor 2): 1.1; isoTOP-ABPP ratio (R) at liganded lysine P13639_K318 (EEF2 Elongation factor 2): 1.2; isoTOP-ABPP ratio (R) at liganded lysine Q14204_K1649 [2]: 0.9; isoTOP-ABPP ratio (R) at liganded lysine Q9NVS9_K100 [3]: 1.0; isoTOP-ABPP ratio (R) at liganded lysine P0CG30_K53 [4]: 0.6
3 | N#Cc1ccc(C(=O)Oc2ccc([N+](=O)[O-])cc2[N+](=O)[O-])cc1 [fragment 44, 2,4-Dinitrophenyl 4-cyanobenzoate] | 1.1 | 1.0 | 1.1 | 1.3 | 0.9 | 0.6 | 
4 | O=C(CCc1ccc2c(c1)OCO2)Oc1ccc([N+](=O)[O-])cc1[N+](=O)[O-] [fragment 45, 2,4-Dinitrophenyl 3-(benzo[d][1,3]dioxol-5-yl)propanoate] | 5.0 | 1.0 | 1.0 | 1.0 | 1.0 | 0.5 | 
5 | O=C(ON1C(=O)CCC1=O)c1cc(C(F)(F)F)cc(C(F)(F)F)c1 [fragment 46, 3,5-Bis(trifluoromethyl)benzoic acid NHS ester] | 0.9 | 1.3 | 1.1 | 1.3 | 1.0 | 1.8 | 
6 | O=C(Oc1c(F)c(F)c(C(F)(F)F)c(F)c1F)c1cc(C(F)(F)F)cc(C(F)(F)F)c1 [fragment 47, 2,3,5,6-Tetrafluoro-4-(trifluoromethyl)phenyl 3,5-bis(trifluoromethyl)benzoate] | 1.0 | 1.1 | 1.1 | 0.9 | 0.9 | 0.6 | 
7 | CC(C)(C)OC(=O)N=C(NC(=O)OC(C)(C)C)n1cccn1 [fragment 50, reference compound] |  |  |  |  |  |  | isoTOP-ABPP ratio, lysine O75323_K75 ([1]; 100 uM_231_sol_in vitro): 1.3; isoTOP-ABPP ratio, lysine P13639_K235 (EEF2 Elongation factor 2; 100 uM_231_sol_in vitro): 7.5; isoTOP-ABPP ratio, lysine P13639_K318 (EEF2 Elongation factor 2; 100 uM_231_sol_in vitro): 1.8; isoTOP-ABPP ratio, lysine Q14204_K1649 ([2]; 100 uM_231_sol_in vitro): 1.3; isoTOP-ABPP ratio, lysine Q9NVS9_K100 ([3]; 100 uM_231_sol_in vitro): 1.1; isoTOP-ABPP ratio, lysine P0CG30_K53 ([4]; 100 uM_231_sol_in vitro): 1.4
8 | NC(=O)c1cc(C(F)(F)F)cc(C(F)(F)F)c1 [fragment 51, reference compound] | 0.9 | 0.9 | 0.9 | 0.7 | 0.9 | 0.7 | 
